ChEMBL document CHEMBL1131377, “Novel 5-(3-aryl-2-propynyl)-5-(arylsulfonyl)thiazolidine-2,4-diones as antihyperglycemic agents” (1998)

Tests used:
Type in all cases: functional
Mus musculus [1] = test: Percent decrease in glucose of db/db mouse was measured at 100 mg/kg/day dosage.
Mus musculus [2] = test: Percent decrease in glucose of db/db mouse was measured at 20 mg/kg/day dosage
Mus musculus [3] = test: % decrease in insulin of 4 day ob/ob mouse was measured at 50 mg/kg/day dosage.
Mus musculus [4] = test: % decrease in glucose of 4 day ob/ob mouse was measured at 50 mg/kg/day dosage.
Mus musculus [5] = test: % decrease in glucose of 4 day ob/ob mouse was measured at 100 mg/kg/day dosage.
Mus musculus [6] = test: % decrease in insulin of 4 day ob/ob mouse was measured at 100 mg/kg/day dosage.

O=C1NC(=O)C(CC#Cc2ccc(Cl)cc2)(Sc2ccccc2)S1 (configuration not stated)
Decrease (Mus musculus [1]): <15%

O=C1NC(=O)C(CC#Cc2ccccc2)(S(=O)(=O)c2ccc3ccccc3c2)S1 (configuration not stated)
Decrease (Mus musculus [1]): 24%

O=C1NC(=O)C(CC#Cc2ccc(Br)cc2)(S(=O)(=O)c2ccccc2)S1 (configuration not stated)
Decrease (Mus musculus [1]): 53%
Decrease (Mus musculus [2]): <15%

Cc1cccc(SC2(CC#Cc3ccc(Cl)cc3)SC(=O)NC2=O)n1 (configuration not stated)
Decrease (Mus musculus [1]): <15%

Cc1ccc(S(=O)(=O)C2(CC#Cc3ccccc3Cl)SC(=O)NC2=O)cc1 (configuration not stated)
Decrease (Mus musculus [1]): 30%

COc1ccc(S(=O)(=O)C2(CC#Cc3ccccc3)SC(=O)NC2=O)cc1 (configuration not stated)
Decrease (Mus musculus [1]): 21%

O=C1NC(=O)C(CC#Cc2ccc(F)cc2)(S(=O)(=O)c2ccccc2)S1 (configuration not stated)
Decrease (Mus musculus [1]): 58%
Decrease (Mus musculus [2]): <15%

Cc1ccc(C#CCC2(S(=O)(=O)c3ccc(C)cc3)SC(=O)NC2=O)cc1 (configuration not stated)
Decrease (Mus musculus [1]): 28%

O=C1NC(=O)C(CC#Cc2ccccc2)(S(=O)(=O)c2ccc(Cl)cc2)S1 (configuration not stated)
Decrease (Mus musculus [1]): 36%

CSc1ccc(C#CCC2(S(=O)(=O)c3ccc(F)cc3)SC(=O)NC2=O)cc1 (configuration not stated)
Decrease (Mus musculus [1]): <15%

O=C1NC(=O)C(CC#Cc2ccc(Cl)cc2)(S(=O)(=O)c2ccc(Br)cc2)S1 (configuration not stated)
Decrease (Mus musculus [1]): 69%
Decrease (Mus musculus [3]): 69%
Decrease (Mus musculus [4]): 36%
Decrease (Mus musculus [2]): <15%

Cc1ccc(S(=O)(=O)C2(CC#Cc3cc(C(F)(F)F)cc(C(F)(F)F)c3)SC(=O)NC2=O)cc1 (configuration not stated)
Decrease (Mus musculus [1]): 22%

O=C1NC(=O)C(CC#Cc2ccc(F)cc2)(S(=O)(=O)c2ccc(Br)cc2)S1 (configuration not stated)
Decrease (Mus musculus [1]): 64%
Decrease (Mus musculus [2]): <15%

O=C1NC(=O)C(CC#Cc2ccccc2)(S(=O)(=O)c2ccccc2)S1 (configuration not stated)
Decrease (Mus musculus [1]): <15%

Cc1ccc(SC2(CC#Cc3ccc(Cl)cc3)SC(=O)NC2=O)cc1 (configuration not stated)
Decrease (Mus musculus [1]): 27%

O=C1NC(=O)C(CC#Cc2ccc(F)cc2)(S(=O)(=O)c2ccc(Cl)cc2)S1 (configuration not stated)
Decrease (Mus musculus [1]): 54%
Decrease (Mus musculus [2]): <15%

Cc1ccc(S(=O)(=O)C2(CC#Cc3ccccc3)SC(=O)NC2=O)cc1 (configuration not stated)
Decrease (Mus musculus [1]): 43%
Decrease (Mus musculus [2]): 23%

O=C1NC(=O)C(CC#Cc2ccc(Cl)cc2)(S(=O)(=O)c2ccc3ccccc3n2)S1 (configuration not stated)
Decrease (Mus musculus [2]): <15%

O=C1NC(=O)C(CC#Cc2ccccc2)(S(=O)(=O)c2ccc(F)cc2)S1 (configuration not stated)
Decrease (Mus musculus [1]): 26%

CC1(COc2ccc(CC3SC(=O)NC3=O)cc2)CCCCC1 (configuration not stated) [CIGLITAZONE]
Decrease (Mus musculus [5]): 43%
Decrease (Mus musculus [1]): 32%
Decrease (Mus musculus [6]): 39%
Decrease (Mus musculus [2]): <15%

Cc1ccc(S(=O)(=O)C2(CC#Cc3ccc(Br)cc3)SC(=O)NC2=O)cc1 (configuration not stated)
Decrease (Mus musculus [1]): 51%
Decrease (Mus musculus [2]): 23%

O=C1NC(=O)C(CC#Cc2cc(C(F)(F)F)cc(C(F)(F)F)c2)(S(=O)(=O)c2ccccn2)S1 (configuration not stated)
Decrease (Mus musculus [2]): <15%

O=C1NC(=O)C(CC#Cc2ccc(Br)cc2)(S(=O)(=O)c2ccc(F)cc2)S1 (configuration not stated)
Decrease (Mus musculus [1]): 70%
Decrease (Mus musculus [2]): <15%

Cc1ccc(C#CCC2(S(=O)(=O)c3ccccc3)SC(=O)NC2=O)cc1 (configuration not stated)
Decrease (Mus musculus [1]): <15%

O=C1NC(=O)C(CC#Cc2ccccc2Cl)(S(=O)(=O)c2ccccc2)S1 (configuration not stated)
Decrease (Mus musculus [1]): <15%

O=C1NC(=O)C(CC#Cc2ccc(Cl)cc2)(S(=O)(=O)c2ccc3ccccc3c2)S1 (configuration not stated)
Decrease (Mus musculus [1]): 20%

Cc1ccc(S(=O)(=O)C2(CC#Cc3ccc(C(F)(F)F)cc3)SC(=O)NC2=O)cc1 (configuration not stated)
Decrease (Mus musculus [1]): 36%
Decrease (Mus musculus [2]): <15%

O=C1NC(=O)C(CC#Cc2ccc(Cl)cc2)(Sc2ccc3ccccc3n2)S1 (configuration not stated)
Decrease (Mus musculus [1]): <15%

O=C1NC(=O)C(CC#Cc2ccc(F)cc2)(S(=O)(=O)c2ccccn2)S1 (configuration not stated)
Decrease (Mus musculus [1]): 67%
Decrease (Mus musculus [3]): 54%
Decrease (Mus musculus [4]): 44%
Decrease (Mus musculus [2]): 36%

O=C1NC(=O)C(CC#Cc2ccc(Cl)cc2)(S(=O)(=O)c2ccc(F)cc2)S1 (configuration not stated)
Decrease (Mus musculus [1]): 79%
Decrease (Mus musculus [2]): 31%

O=C1NC(=O)C(CC#Cc2ccc(Br)cc2)(S(=O)(=O)c2ccc(Cl)cc2)S1 (configuration not stated)
Decrease (Mus musculus [1]): 68%
Decrease (Mus musculus [2]): <15%

O=C1NC(=O)C(CC#Cc2ccc(C(F)(F)F)cc2)(S(=O)(=O)c2ccc(Cl)cc2)S1 (configuration not stated)
Decrease (Mus musculus [1]): 37%

Cc1cccc(S(=O)(=O)C2(CC#Cc3ccc(Cl)cc3)SC(=O)NC2=O)n1 (configuration not stated)
Decrease (Mus musculus [1]): <15%
Decrease (Mus musculus [2]): <15%

O=C1NC(=O)C(CC#Cc2cccc(Cl)c2)(S(=O)(=O)c2ccccc2)S1 (configuration not stated)
Decrease (Mus musculus [1]): <15%

O=C1NC(=O)C(CC#Cc2ccc(Cl)cc2)(S(=O)(=O)c2ccccn2)S1 (configuration not stated)
Decrease (Mus musculus [1]): 55%
Decrease (Mus musculus [2]): 38%

Cc1ccc(S(=O)(=O)C2(CC#Cc3ccc(Cl)cc3)SC(=O)NC2=O)cc1 (configuration not stated)
Decrease (Mus musculus [1]): 35%

COc1ccc(C#CCC2(S(=O)(=O)c3ccc(C)cc3)SC(=O)NC2=O)cc1 (configuration not stated)
Decrease (Mus musculus [1]): <15%

Cc1ccc(S(=O)(=O)C(CC#Cc2ccc(Cl)cc2)C(=O)O)cc1 (configuration not stated) [TIBEGLISENE]
Decrease (Mus musculus [1]): 30%
Decrease (Mus musculus [3]): 54%
Decrease (Mus musculus [4]): <15%

O=C1NC(=O)C(S(=O)(=O)c2ccc3ccccc3c2)S1 (configuration not stated)
Decrease (Mus musculus [1]): 21%

O=C1NC(=O)C(CC#Cc2ccc(F)cc2)(S(=O)(=O)c2ccc(F)cc2)S1 (configuration not stated)
Decrease (Mus musculus [1]): 57%
Decrease (Mus musculus [2]): 25%

O=C1NC(=O)C(CC#Cc2ccc(C(F)(F)F)cc2)(S(=O)(=O)c2ccccc2)S1 (configuration not stated)
Decrease (Mus musculus [1]): 59%
Decrease (Mus musculus [2]): <15%

O=C1NC(=O)C(CC#Cc2ccccc2)(S(=O)(=O)c2ccc(Br)cc2)S1 (configuration not stated)
Decrease (Mus musculus [1]): 43%
Decrease (Mus musculus [2]): <15%

COc1ccc(S(=O)(=O)C2(CC#Cc3ccc(Cl)cc3)SC(=O)NC2=O)cc1 (configuration not stated)
Decrease (Mus musculus [1]): 45%
Decrease (Mus musculus [2]): <15%

O=C1NC(=O)C(CC#Cc2ccc(Cl)cc2)(Sc2ccc(F)cc2)S1 (configuration not stated)
Decrease (Mus musculus [1]): <15%

O=C1NC(=O)C(CC#Cc2ccc(Cl)cc2)(Sc2ccc(Cl)cc2)S1 (configuration not stated)
Decrease (Mus musculus [1]): 24%

O=C1NC(=O)C(CC#Cc2ccc(Cl)cc2)(S(=O)(=O)c2ccccc2)S1 (configuration not stated)
Decrease (Mus musculus [5]): 40%
Decrease (Mus musculus [1]): 52%
Decrease (Mus musculus [6]): 65%
Decrease (Mus musculus [2]): 21%

O=C1NC(=O)C(CC#Cc2ccc(OC(F)(F)F)cc2)(S(=O)(=O)c2ccc(F)cc2)S1 (configuration not stated)
Decrease (Mus musculus [1]): 56%
Decrease (Mus musculus [2]): <15%

COc1ccc(C#CCC2(S(=O)(=O)c3ccccc3)SC(=O)NC2=O)cc1 (configuration not stated)
Decrease (Mus musculus [1]): 25%

O=C1NC(=O)C(CC#Cc2ccc(Cl)cc2)(Sc2ccccn2)S1 (configuration not stated)
Decrease (Mus musculus [1]): <15%

O=C1NC(=O)C(CC#Cc2ccc(F)c(F)c2)(S(=O)(=O)c2ccc(F)cc2)S1 (configuration not stated)
Decrease (Mus musculus [1]): 33%

O=C1NC(=O)C(CC#Cc2ccc(Cl)cc2)(S(=O)(=O)c2ccc(Cl)cc2)S1 (configuration not stated)
Decrease (Mus musculus [1]): 70%
Decrease (Mus musculus [3]): 56%
Decrease (Mus musculus [4]): 47%
Decrease (Mus musculus [2]): 18%

Cc1cccc(S(=O)(=O)C2(CC#Cc3ccc(Cl)cc3)SC(=O)NC2=O)c1 (configuration not stated)
Decrease (Mus musculus [1]): 33%

Cc1cccc(S(=O)(=O)C2(CC#Cc3ccccc3)SC(=O)NC2=O)c1 (configuration not stated)
Decrease (Mus musculus [1]): 48%
Decrease (Mus musculus [2]): <15%

O=C1NC(=O)C(CC#Cc2cc(C(F)(F)F)cc(C(F)(F)F)c2)(S(=O)(=O)c2ccccc2)S1 (configuration not stated)
Decrease (Mus musculus [1]): 54%
Decrease (Mus musculus [2]): 21%

O=C1NC(=O)C(CC#Cc2ccc(C(F)(F)F)cc2)(S(=O)(=O)c2ccc(F)cc2)S1 (configuration not stated)
Decrease (Mus musculus [1]): 52%
Decrease (Mus musculus [2]): <15%

Cc1ccc(S(=O)(=O)C2(CC#Cc3ccc(F)cc3)SC(=O)NC2=O)cc1 (configuration not stated)
Decrease (Mus musculus [1]): 65%
Decrease (Mus musculus [3]): 30%
Decrease (Mus musculus [4]): 30%
Decrease (Mus musculus [2]): <15%

Cc1ccc(S(=O)(=O)C2(CC#Cc3cccc(Cl)c3)SC(=O)NC2=O)cc1 (configuration not stated)
Decrease (Mus musculus [1]): 30%
